Results taken from patent publication US20140039053A1, “THERAPEUTIC AGENT FOR DIASTOLIC CONGESTIVE HEART FAILURE” (Mochida Pharmaceutical Co., Ltd., priority 2011, published 2014).

Tests used:
[1] = system: diastolic congestive heart failure patients; test: Echocardiographic evaluation of diastolic function in diastolic congestive heart failure patients, EPA-E-administered vs non-administered group (Example 2); type: in vivo, human
Experimental: Diastolic congestive heart failure patients were targeted and divided into an EPA-E-administered group and an EPA-E-non-administered group. The EPA-E-administered group received the oral administration of EPA-E (trade name: Epadel; manufactured by Mochida Pharmaceutical Co., Ltd.) at a daily dose of 1800 mg for 6 months. The EPA-E-non-administered group received neither EPA nor its derivative during the test period. Another hypotensive or antilipidemic agent was not administered to any of these groups during the test period. The diastolic function of each patient was evaluated by echocardiography before the start of the test and after the completion of the test (6 months later). The evaluation items used were 1) a ratio of a peak filling velocity of early diastolic transmitral flow (a peak filling velocity of mitral inflow during early diastole: E) to a peak filling velocity of atrial systolic transmitral flow (a peak filling velocity of mitral inflow during atrial contraction: A) (E/A ratio), 2) the time required for the peak filling velocity of mitral inflow during early diastole to reach zero (deceleration time: DT), 3) an early diastolic mitral annulus velocity (E), and 4) an E/E′ ratio. The degree of improvement in these indexes was confirmed for each case corresponding to 1) an E/A ratio<1.0, 2) DT>250 msec, 3) E′<8 cm/s, or 4) an E/E′ ratio>15 as an index for cardiac diastolic dysfunction. The rate of change was determined as an average of % change from the value (defined as 100) before the start to the value after 6 months in each case.

[2] = system: diastolic congestive heart failure patients; test: as above; type: in vivo, human; conditions: target cases E′ <8 cm/s (18 cases)
[3] = printed as reduction (improvement), average of % change per case, before start to 6 months, 1800 mg/day oral
[4] = printed as rise (improvement), average of % change per case, before start to 6 months, 1800 mg/day oral

SMILES: CC/C=C\C/C=C\C/C=C\C/C=C\C/C=C\CCCC(=O)OCC [EPA-E, icosapentaenoic acid ethyl ester]
- DT, rate of change [1, 3]: 10.9% reduction
- E/E′ ratio, rate of change [1, 3]: 27.4% reduction
- E/A ratio, rate of change [1, 4]: 3.7% rise
- E′, rate of change [1, 4]: 2.3% rise
- DT (deceleration time), mean after 6 months ([1]; target cases DT >250 msec (6 cases), EPA-E 1800 mg/day oral, 6 months): 241.7 ms
- DT (deceleration time), mean before start ([1]; target cases DT >250 msec (6 cases), baseline before EPA-E 1800 mg/day oral): 271.3 ms
- E/A ratio, mean after 6 months ([1]; target cases E/A ratio <1.0 (14 cases), EPA-E 1800 mg/day oral, 6 months): 0.692
- E/A ratio, mean before start ([1]; target cases E/A ratio <1.0 (14 cases), baseline before EPA-E 1800 mg/day oral): 0.669
- E/E′ ratio, mean after 6 months ([1]; target cases E/E′ ratio >15 (4 cases), EPA-E 1800 mg/day oral, 6 months): 13.14
- E/E′ ratio, mean before start ([1]; target cases E/E′ ratio >15 (4 cases), baseline before EPA-E 1800 mg/day oral): 18.09
- E′ (early diastolic mitral annular velocity), mean after 6 months ([2]; EPA-E 1800 mg/day oral, 6 months): 4.539 cm/s
- E′ (early diastolic mitral annular velocity), mean before start ([2]; baseline before EPA-E 1800 mg/day oral): 4.483 cm/s
